# Laboratory results reported in patent publication US20030229451A1, “Methods and systems for analyzing complex biological systems” (priority 2001, published 2003).
# Test system: Saccharomyces cerevisiae wild type strain BY4743
# Test: AF1 metabolite analysis (GC-MS, LC-MS) of yeast cells treated with antifungal drugs
# Format: cell-based
# Conditions: for # Compounds perturbed: 2x MIC, two hours
structure (smiles),measurement,setting,value
C[C@@H]1[C@H](O)[C@@H](C)/C=C/C=C/C=C/C=C/C=C/C=C/C=C/[C@H](O[C@@H]2O[C@H](C)[C@@H](O)[C@H](N)[C@@H]2O)C[C@@H]2O[C@](O)(C[C@@H](O)C[C@@H](O)[C@H](O)CC[C@@H](O)C[C@@H](O)CC(=O)O[C@H]1C)C[C@H](O)[C@H]2C(=O)O [Amphoteracin B],# Compounds perturbed,P < 0.05,16
same,# Compounds perturbed,P < 0.1,21
same,Fold Change,platform GC,−0.933
same,"Fold Change, TMS mevalonic acid lactone",platform GC,−0.9767
same,"Fold Change, alanine",platform GC,−0.7773
same,"Fold Change, asparagine",platform GC,−1
same,"Fold Change, aspartic acid",platform GC,−0.9743
same,"Fold Change, campesterol",platform GC,0
same,"Fold Change, desmosterol",platform GC,0
same,"Fold Change, disaccaride1",platform GC,−1
same,"Fold Change, disaccaride2",platform GC,−0.9977
same,"Fold Change, disaccaride3",platform GC,−0.9977
same,"Fold Change, ergosterol",platform GC,2.303
same,"Fold Change, fucosterol",platform GC,−0.6553
same,"Fold Change, glutamine",platform GC,−0.9116
same,"Fold Change, glycanopyrose",platform GC,−0.958
same,"Fold Change, glycerol",platform GC,−0.815
same,"Fold Change, glycine",platform GC,0.8807
same,"Fold Change, hexadecanoic acid",platform GC,−0.2427
same,"Fold Change, iso citric acid",platform GC,−0.6183
same,"Fold Change, isoleucine",platform GC,−0.9533
same,"Fold Change, lanosterol",platform GC,−1
same,"Fold Change, leucine",platform GC,−0.9443
same,"Fold Change, lysine",platform GC,−0.3925
same,"Fold Change, malic acid",platform GC,−0.963
same,"Fold Change, mevalonic acid lactone",platform GC,−0.1276
same,"Fold Change, octadecanoic acid",platform GC,0.21
same,"Fold Change, oleic acid",platform GC,−0.4593
same,"Fold Change, ornithine2",platform GC,−1
same,"Fold Change, ornithine3",platform GC,−0.9853
same,"Fold Change, palmiteliadic acid",platform GC,0.515
same,"Fold Change, phenylalanine",platform GC,−0.9797
same,"Fold Change, phosphate",platform GC,−0.007333
same,"Fold Change, pyrimidine",platform GC,−0.185
same,"Fold Change, squalene",platform GC,−0.5745
same,"Fold Change, tetradecanoic acid",platform GC,0.07967
same,"Fold Change, threonine2",platform GC,−0.8553
same,"Fold Change, threonine3",platform GC,−0.8933
same,"Fold Change, tms glutamine3",platform GC,−0.8935
same,"Fold Change, tms lysine4",platform GC,−0.9783
same,"Fold Change, tms tyrosine2",platform GC,−0.3593
same,"Fold Change, tms tyrosine3",platform GC,−0.9473
same,"Fold Change, valine",platform GC,−0.8673
same,"Fold Change, 2-ketobutyric acid",platform nLC,−0.9992
same,"Fold Change, 2-ketoglutaric",platform nLC,8.791
same,"Fold Change, 3-indolylacetonitri",platform nLC,−0.9998
same,"Fold Change, 4-methylcatechol",platform nLC,0
same,"Fold Change, 4aminobutyrate/dimg",platform nLC,−0.1983
same,"Fold Change, 5hydroxyLtryptophan",platform nLC,0
same,"Fold Change, 6-benzylaminopurine",platform nLC,0
same,"Fold Change, DLaminoadipic acid",platform nLC,1.411
same,"Fold Change, NacetylDglucosamine",platform nLC,0
same,"Fold Change, NacetylLglutamate",platform nLC,−0.1078
same,"Fold Change, NacetylLornithine",platform nLC,0
same,"Fold Change, abscisic acid",platform nLC,0
same,"Fold Change, aconitic acid",platform nLC,0.5426
same,"Fold Change, adenine",platform nLC,0
same,"Fold Change, adenosine",platform nLC,0
same,"Fold Change, alanine",platform nLC,0.1599
same,"Fold Change, allantoic acid",platform nLC,−0.1456
same,"Fold Change, allantoin",platform nLC,3.97
same,"Fold Change, anthranilic acid",platform nLC,0
same,"Fold Change, arginine",platform nLC,−0.4885
same,"Fold Change, argininosuccinate",platform nLC,0
same,"Fold Change, asparagine",platform nLC,0.1511
same,"Fold Change, aspartic",platform nLC,0.2407
same,"Fold Change, benzoic acid",platform nLC,0
same,"Fold Change, biotin",platform nLC,1.077
same,"Fold Change, caffeic acid",platform nLC,−0.5882
same,"Fold Change, catechol",platform nLC,0
same,"Fold Change, cinnamic acid",platform nLC,0
same,"Fold Change, citricanoic/itaconi.",platform nLC,0
same,"Fold Change, citrulline",platform nLC,1659
same,"Fold Change, coumaric acid",platform nLC,0
same,"Fold Change, cytidine",platform nLC,−0.9986
same,"Fold Change, cytosine",platform nLC,0
same,"Fold Change, decanoic acid",platform nLC,−0.08716
same,"Fold Change, diaminopimelic acid",platform nLC,0
same,"Fold Change, dihydrofolic acid",platform nLC,0
same,"Fold Change, estrone",platform nLC,0
same,"Fold Change, farnesol",platform nLC,0
same,"Fold Change, folic acid",platform nLC,0
same,"Fold Change, fumaric/3m2oxobutan",platform nLC,0.4423
same,"Fold Change, gallic acid",platform nLC,0.1622
same,"Fold Change, gibberellic",platform nLC,0
same,"Fold Change, glucosamine6PO4",platform nLC,−0.9951
same,"Fold Change, glutamic/acetylseri",platform nLC,0.1414
same,"Fold Change, glutamine/lysine",platform nLC,0.07919
same,"Fold Change, guanine",platform nLC,0
same,"Fold Change, guanosine",platform nLC,1.131
same,"Fold Change, histidine",platform nLC,0
same,"Fold Change, homogentisic/uric",platform nLC,0
same,"Fold Change, hydrocortisone",platform nLC,0
same,"Fold Change, hypoxanthine",platform nLC,0.1655
same,"Fold Change, indole3pyruvic acid",platform nLC,0
same,"Fold Change, inostol/glucos/sorb",platform nLC,−0.5905
same,"Fold Change, isocitric/citric/qu",platform nLC,2.549
same,"Fold Change, jasmonic acid",platform nLC,0
same,"Fold Change, kinetin",platform nLC,0
same,"Fold Change, lactic acid",platform nLC,−0.02583
same,"Fold Change, lauric acid",platform nLC,0.1225
same,"Fold Change, leucine/isoleucine/",platform nLC,0.1319
same,"Fold Change, luteolin",platform nLC,0
same,"Fold Change, malic acid",platform nLC,0.6212
same,"Fold Change, malonic acid",platform nLC,0
